Test results taken from patent US20100260691A1, “Aqueous compositions containing a hydrophobic material” (priority 2006, published 2010).
One block for each compound: values may come before it.

Tests used:
[1] = cited from earlier work
[2] = Solubility / solubilization of Triclosan in water and SDS solutions; assay type: physicochemical; conditions: SDS alone, no PVP
Protocol: This concentrate was serially diluted at 3/10, 2.5/10, 2/10, 1.5/10, 1/10, 0.8/10, 0.6/10, 0.4/10 with water. […] Minimum amount of SDS required to solubilize 0.075%-0.09% Triclosan was ˜0.4-0.5% range SDS. This corresponds to about two-three times the CMC for SDS, which was determined to be about 0.17%.

[3] = Particle size by Dynamic Light Scattering; assay type: physicochemical; conditions: active in SDS/PVP K-30 aqueous systems and dilutions
Source text: The hydrophobic material is present in the composition as an emulsion or a dispersion. The particle size of the hydrophobic material in the composition typically falls within the range of from about 5 to 1000 nm, more particularly from about 5 to 500 nm, still more particularly from about 10 to 100 nm and in accordance with certain embodiments from about 10 to 30 nm. Particle size refers to average particle radius and can be determined using dynamic light scattering techniques and equipment known to those of skill in the art. The compositions in accordance with certain aspects of the invention are visually clear due primarily to the small particle size of the hydrophobic material. Optical clarity can be measured using a turbidimeter or nephelometer.

[4] = Visual clarity of aqueous concentrate and dilutions; assay type: physicochemical; conditions: for appearance of dilutions with water: dilution ratios as stated in each example; for appearance / dissolution of the aqueous concentrate: undiluted composition as prepared
Source text: FIG. 2 summarizes a method that can be used for optimization. Once the components are identified, optimization may be performed by preparing several mixtures of the components in different ratios and observing the phase behavior. Plot the compositions producing clear systems for concentrate and dilutions and identify regions in the triangular composition space. For a fixed amount of the hydrophobic material or active ingredient, vary the ratios of the surfactant and polymer in water. Alternately, vary the concentration of the hydrophobic material or active ingredient, polymer and surfactant in different ratio and make up to 100% in water and plot the compositions providing clear systems for the concentrate and for dilutions.

[5] = Critical micelle concentration by surface tension; assay type: physicochemical; conditions: in water
Source text: Suitable polymer is selected by first determining the surface tension concentration profile of the surfactant and evaluating the CMC. This is done by preparing standard solutions of the surfactant in water at different concentration and dilutions and measuring surface tension of the solutions and plotting the data as shown in FIG. 1. Surface tension may be measured using a typical Tensiometer [DuNuoy Tensiometer, Surface Tensiomat, Fisher with a platinum ring with a mean circumference of 6 cm, and a ring/wire radius ratio of 53.8. As an example: starting with 1% solution of a typical surfactant like SDS, serial dilutions are made by diluting appropriate amounts of the 1% stock solution and diluting to 0.5%, 0.2%, 0.1% and 0.05, 0.02, 0.01, 0.005, 0.002, by adding appropriate amounts of de-ionized water to a weighed quantity of the stock solution. FIG. 1 is a plot of concentration in moles per liter of the SDS and surface tension at 25° C.

Compound: Oc1cc(Cl)ccc1Oc1ccc(Cl)cc1Cl [Triclosan]
- solubility in water [1]: 10 ppm
- Minimum amount of SDS required to solubilize 0.075%-0.09% Triclosan [2]: 0.4-0.5 % SDS
- Minimum amount of SDS to solubilize 0.3% Triclosan in water [2]: ~2 % SDS
- level of SDS required to solubilize 3% Triclosan [2]: 25%
- particle size (radius) [3]: 10-30 nm

- appearance of dilutions with water [4]: clear solutions
- appearance / dissolution of the aqueous concentrate [4]: clear solutions
Compound: CCOC(=O)c1ccc(O)cc1 [ethylparaben]

- appearance of dilutions with water [4]: clear solutions
- appearance / dissolution of the aqueous concentrate [4]: clear solutions
Compound: COC(=O)c1ccc(O)cc1 [methylparaben]

- CMC [5]: about 0.17%
Compound: CCCCCCCCCCCCOS(=O)(=O)[O-].[Na+] [SDS, sodium dodecylsulfate]
